Data on twelve compounds can be found in patent publication US11319295B2, “Substituted phenyloxetane and phenyltetrahydrofuran compounds as indoleamine 2,3-dioxygenase (IDO) inhibitors” (MERCK SHARP & DOHME CORP., priority 2017, dated 2022).

Read-outs that look alike come from different tables or passages of the source.

Assay [1] concerns the target T1, IDO1 (Homo sapiens, UniProt P14902). As to the kind of experiment: IDO1 Cellular Assay in Hela Cells Stimulated with IFNγ. The conditions noted are these: Hela IC50 (nM), Hela cells stimulated with IFNγ 100 ng/mL, 300 uM L-tryptophan, about 48 hours; form screened: Neutral.
Experimental: Hela cells were cultured in complete Hela culture medium (90% EMEM, 10% heat-inactivated fetal bovine serum) and expanded to about 1×10^9 cells. The cells were then collected and frozen down at 1×10^7 cells/vial in 1 mL frozen medium (90% complete Hela culture medium, 10% DMSO)
Compounds to be tested were serially diluted in ten 3-fold steps in DMSO starting from 10 mM DMSO stocks in Echo low volume plate(s).
Hela cells with and without IFNγ were dispensed to the respective wells of 384-well assay plates containing the compounds. The plates were incubated for about 48 hours at a 37° C., 5% CO2 incubator. Afterwards, 12 mL of 0.5 M methyl isonipecotate in dimethyl sulfoxide were added into each well and the plates were sealed and incubated at 37° C. without CO2 overnight. The plates were centrifuged for 1 min at 200×g. The resulting fluorescence was measured in a Spectramax plate reader (Molecular Devices) with a 400 nm excitation filter and a 510 nm emission filter.
Potencies were calculated by linear least squares fit to the four parameter logistic IC50 equation.
The target of assay [2] is T1, IDO1. As to the kind of experiment: IDO1 Human Whole Blood Assay. On the set-up: Human whole blood was drawn in sodium heparin coated tubes from healthy internal donors; from tissue; host or cells: human whole blood from healthy donors, stimulated with LPS and IFNγ. The assay is classed as cell-based. Conditions: LPS and IFNγ 100 ng/mL, 18 h, kynurenine by LC/MS/MS, form screened: Neutral. The procedure:
IDO1 Human Whole Blood Assay
LPS and IFNγ was prepared in RPMI to a 10× of final conc. (1000 ng/mL), final concentration is 100 ng/mL.
Human whole blood was drawn in sodium heparin coated tubes from healthy internal donors. […] of blood was transferred to each of the wells of a v-bottom 96 well plate. […] of compound was transferred from intermediate dilution plate, and incubated for 15 min. 30 μL from stimulants was then transferred to blood and mixed thoroughly. Plate was covered with breathable membrane and incubated at 37° C. for overnight (18 h).
On day 2 isotope labeled standard of kynurenine and tryptophan was made in water at 10× concentration and […] was added to the blood at […] final concentration. The assay plates were centrifuged at 300×G for 10 min with no brake to separate plasma from red blood cells. […] of plasma samples was removed without disturbing red blood cells. Plasma was diluted with RPMI in 1:1 ratio and proteins were precipitated out with two volume of Acetonitrile. The plates was centrifuged at 4000×G for 60 min. 20 mL of supernatant was carefully transferred to a 384 well plate contain 40 mL of 0.1% formic acid in water and analyzed by LC/MS/MS.
LC/MS/MS analyses were performed using Thermo Fisher's LX4-TSQ Quantum Ultra system. This system consists of four Agilent binary high-performance liquid chromatography (HPLC) pumps and a TSQ Quantum Ultra triple quadruple MS/MS instrument. For each sample, […] were injected onto an Atlantis T3 column (2.1 mm×150 mm, […]) from Waters. The mobile phase gradient pumped at 0.8 mL/min was used to elute the analytes from the column at 25° C. […] Mobile phase A consisted of 0.1% formic acid in water. Mobile phase B consisted of 0.1% of formic acid in acetonitrile. Data was acquired in positive mode using a HESI interface. […] Compounds were titrated and IC50's were calculated by 4 parameter sigmoidal curve fitting formula.

In a further assay the target is TDO (Homo sapiens, UniProt P48775).
Sequence of TDO (P48775 whole entry): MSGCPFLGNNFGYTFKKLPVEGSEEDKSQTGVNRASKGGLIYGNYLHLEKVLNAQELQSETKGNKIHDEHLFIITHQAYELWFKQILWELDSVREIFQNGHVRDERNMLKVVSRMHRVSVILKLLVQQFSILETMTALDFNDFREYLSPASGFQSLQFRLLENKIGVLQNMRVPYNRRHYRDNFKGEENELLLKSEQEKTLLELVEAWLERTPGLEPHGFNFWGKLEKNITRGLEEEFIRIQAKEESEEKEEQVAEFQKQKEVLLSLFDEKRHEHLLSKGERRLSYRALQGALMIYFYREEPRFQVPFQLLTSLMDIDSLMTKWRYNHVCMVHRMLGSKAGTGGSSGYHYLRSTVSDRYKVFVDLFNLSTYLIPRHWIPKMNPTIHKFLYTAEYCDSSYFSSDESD
Where [3] appears, read: read-out: SW48 IC50, SW48 cells, 300 uM L-tryptophan, about 48 hours, form screened: Neutral.

T1 sequence (P14902 whole entry): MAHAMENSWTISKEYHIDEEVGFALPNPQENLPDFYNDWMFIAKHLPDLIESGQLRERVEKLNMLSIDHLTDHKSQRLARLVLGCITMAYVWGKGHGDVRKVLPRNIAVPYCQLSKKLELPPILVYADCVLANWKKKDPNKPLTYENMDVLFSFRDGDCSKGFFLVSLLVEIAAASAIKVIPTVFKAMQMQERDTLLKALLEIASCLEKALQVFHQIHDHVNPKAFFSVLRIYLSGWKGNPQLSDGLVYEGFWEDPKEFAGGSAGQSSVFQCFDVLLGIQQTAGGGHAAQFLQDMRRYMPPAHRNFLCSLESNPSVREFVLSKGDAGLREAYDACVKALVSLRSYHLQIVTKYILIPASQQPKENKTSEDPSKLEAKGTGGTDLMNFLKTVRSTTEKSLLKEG
Experimental for TDO: TDO Cellular Assay in Frozen SW48 Cells
SW48 cells were cultured in complete RPMI culture medium (90% RPMI, 10% heat-inactivated fetal bovine serum).
SW48 and A2780 cells were dispensed to the respective wells of 384-well assay plates containing the compounds. The plates were incubated for about 48 hours at a 37° C., 5% CO2 incubator. Afterwards, 12 μL of 0.5 M ethyl isonipecotate (Sigma Aldrich, Cat #E33505) in dimethyl sulfoxide were added into each well and the plates were sealed and incubated at 37° C. without CO2 overnight. The plates were centrifuged for 1 minute at 200×g. The resulting fluorescence was measured in a Spectramax plate reader (Molecular Devices) with a 400 nm excitation filter and a 510 nm emission filter.
The fluorescence intensity of each well was corrected for the background observed in wells with A2780 cells and was expressed as a fraction of the intensity observed in wells of SW48 cells and DMSO only. Potencies were calculated by linear least squares fit to the four parameter logistic IC50 equation.

For orientation: IC50 means the midpoint of a concentration-inhibition curve. In turn, `Cc1cc(NC(=O)c2cccc(Cl)c2)cnc1C1(C(=O)Nc2ccc(F)cc2)COC1` [Example 19, 3-{5-[(3-chlorobenzene-1-carbonyl)amino]-3-methylpyridin-2-yl}-N-(4-fluorophenyl)oxetane-3-carboxamide] yielded an IC50 on IDO1 [1] of 205 nM.
For `CCCNC(=O)C1(c2ccc(NC(=O)c3cccc(Cl)c3)cc2)COC1` [Example 5, 3-{4-[(3-chlorobenzene-1-carbonyl)amino]phenyl}-N-propyloxetane-3-carboxamide], the IC50 on IDO1 [1] came to 25 nM; against IDO1 [2] it was 1530 nM.
Consider `CC1CC1NC(=O)C1(c2ccc(NC(=O)c3cccc(Cl)c3)cc2)COC1` (single isomer, unassigned) [Example 9, 3-{4-[(3-chlorobenzene-1-carbonyl)amino]phenyl}-N-(2-methylcyclo-propyl)oxetane-3-carboxamide], for which the IC50 against IDO1 [1] is 216 nM; on TDO (setting [3]), not below 10000 nM.
Take `O=C(Nc1ccc(C2(C(=O)NCC3CC3)COC2)cc1)c1cccc(Cl)c1` [Example 7, 3-{4-[(3-chlorobenzene-1-carbonyl)amino]phenyl}-N-(cyclopropyl-methyl)oxetane-3-carboxamide]: the half-inhibitory concentration (IC50) was 56 nM against IDO1 [1] and not below 10000 nM against TDO.
`CC1CC1NC(=O)C1(c2ccc(NC(=O)c3cccc(Cl)c3)cc2)COC1` (single isomer, unassigned) [Example 8, 3-{4-[(3-chlrobenzene-1-carbonyl)amino]phenyl}-N-(2-methylcyclo-propyl)oxetane-3-carboxamide]: the IC50 against IDO1 [1] was 85 nM; against TDO, not below 10000 nM.
For `O=C(Nc1ccc(C2(C(=O)Nc3ccc(F)cc3)COC2)cc1)c1cccc(Cl)c1F` [Example 3, 3-{4-[(3-chloro-2-fluorobenzene-1-carbonyl)amino]phenyl}-N-(4-fluorophenyl)oxetane-3-carboxamide], in that order: 3 nM and not below 10000 nM.
`CC1CC1NC(=O)C1(c2ccc(NC(=O)c3cccc(Cl)c3)cc2)COC1` (single isomer, unassigned) [Example 4, 3-{4-[(3-chlorobenzene-1-carbonyl)amino]phenyl}-N-(2-methylcyclopropyl)oxetane-3-carboxamide]: the IC50 is 12 nM on IDO1 [1], not below 10000 nM on TDO (setting [3]) and 324 nM on IDO1 [2].
Consider `Cc1cc(C2(C(=O)Nc3ccc(F)cc3)COC2)ncc1NC(=O)c1cccc(Cl)c1` [Example 17, 3-{5-[(3-chlorobenzene-1-carbonyl)amino]-4-methylpyridin-2-yl}-N-(4-fluorophenyl)oxetane-3-carboxamide], for which the IC50 against IDO1 [1] is 6 nM.
As to `N#Cc1cccc(C(=O)Nc2ccc(C3(C(=O)Nc4ccc(F)cc4)COC3)nc2)c1` [Example 20, 3-{5-[(3-cyanobenzene-1-carbonyl)amino]pyridin-2-yl}-N-(4-fluorophenyl)oxetane-3-carboxamide], the IC50 stood at 3 nM at IDO1 [1] and 438 nM at IDO1 [2].
For `Cc1cc(C2(C(=O)Nc3ccc(F)cc3)COC2)ncc1NC(=O)c1cccc(C#N)c1` [Example 18, 3-{5-[(3-cyanobenzene-1-carbonyl)amino]-4-methylpyridin-2-yl}-N-(4-fluorophenyl)oxetane-3-carboxamide], the IC50 at IDO1 [1] stood at 58 nM.
As to `O=C(Nc1ccc(C2(C(=O)NCCC(F)(F)F)COC2)cc1)c1cccc(Cl)c1` [Example 6, 3-{4-[(3-chlorobenzene-1-carbonyl)amino]phenyl}-N-(3,3,3-trifluoropropyl)oxetane-3-carboxamide], the half-inhibitory concentration (IC50) against IDO1 [1] was 51 nM; at TDO, not below 10000 nM.
Take `CC1CC1NC(=O)C1(c2ccc(NC(=O)c3cccc(Cl)c3)cc2)COC1` (single isomer, unassigned) [Example 10, 3-{4-[(3-chlorobenzene-1-carbonyl)amino]phenyl}-N-(2-methylcyclo-propyl)oxetane-3-carboxamide]: the IC50 on IDO1 [1] is 352 nM; at TDO (setting [3]), not below 10000 nM.
